Experimental findings from PubChem BioAssay AID256 (DTP/NCI, 2004) are described below.

Molecules are shown by their SMILES. Several values for one entry are separate records, joined by “and”; a condition that tells them apart may be missing. Equal values may be shown once. Inconclusive results and toxic doses are left out.

The subject of the assay is CD2F1 mice, L1210 leukemia ip, survival T/C. Put plainly: NCI In Vivo Anticancer Drug Screen. Data for tumor model L1210 Leukemia (intraperitoneal) in CD2F1 (CDF1) mice. Particulars: higher = longer survival. The method, boiled down: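 Compound-dosed mice with transplantable tumor versus matched vehicle controls; endpoint ratio T/C reported.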
[1] abbreviates: endpoint: mean survival time, dose: 100.0 mg/kg/injection, schedule: Q01DX009 (ip), vehicle: saline with Tween-80.
[2] abbreviates: endpoint: mean survival time, dose: 100.0 mg/kg/injection, schedule: Q04DX003 (ip), vehicle: saline with Tween-80.
Where [3] appears, read: endpoint: mean survival time, dose: 200.0 mg/kg/injection, schedule: Q01DX009 (ip), vehicle: saline with Tween-80.
Where [4] appears, read: endpoint: mean survival time, dose: 200.0 mg/kg/injection, schedule: Q04DX003 (ip), vehicle: saline with Tween-80.
Setting [5] is: endpoint: mean survival time, dose: 400.0 mg/kg/injection, schedule: Q04DX003 (ip), vehicle: saline with Tween-80.
The mark [6] stands for this setting: endpoint: mean survival time, dose: 200.0 mg/kg/injection, schedule: Q01DX001 (ip), vehicle: saline with Tween-80.
The mark [7] stands for this setting: endpoint: mean survival time, dose: 400.0 mg/kg/injection, schedule: Q01DX001 (ip), vehicle: saline with Tween-80.
The mark [8] stands for this setting: endpoint: mean survival time, dose: 50.0 mg/kg/injection, schedule: Q01DX009 (ip), vehicle: Klucel (hydroxypropylcellulose) (HPC).
The mark [9] stands for this setting: endpoint: mean survival time, dose: 100.0 mg/kg/injection, schedule: Q01DX009 (ip), vehicle: Klucel (hydroxypropylcellulose) (HPC).
[10] abbreviates: endpoint: mean survival time, dose: 200.0 mg/kg/injection, schedule: Q01DX009 (ip), vehicle: Klucel (hydroxypropylcellulose) (HPC).
Setting [11] is: endpoint: mean survival time, dose: 100.0 mg/kg/injection, schedule: Q01DX001 (ip), vehicle: saline with Tween-80.
Setting [12] is: endpoint: mean survival time, dose: 50.0 mg/kg/injection, schedule: Q01DX001 (ip), vehicle: saline.
Setting [13] is: endpoint: mean survival time, dose: 100.0 mg/kg/injection, schedule: Q01DX001 (ip), vehicle: saline.
The mark [14] stands for this setting: endpoint: mean survival time, dose: 200.0 mg/kg/injection, schedule: Q01DX001 (ip), vehicle: saline.
The mark [15] stands for this setting: endpoint: mean survival time, dose: 100.0 mg/kg/injection, schedule: Q04DX002 (ip), vehicle: saline with Tween-80.
Setting [16] is: endpoint: mean survival time, dose: 200.0 mg/kg/injection, schedule: Q04DX002 (ip), vehicle: saline with Tween-80.
[17] abbreviates: endpoint: mean survival time, dose: 50.0 mg/kg/injection, schedule: Q01DX001 (ip), vehicle: saline with Tween-80.

With `CCOC(=O)CC(=O)COC(=O)CC(=O)OCC`, the T/C is, setting by setting: (endpoint: mean survival time, dose: 12.5 mg/kg/injection, schedule: Q01DX009 (ip), vehicle: other) 96 % of control; (endpoint: mean survival time, dose: 25.0 mg/kg/injection, schedule: Q01DX009 (ip), vehicle: other) 100 % of control; (endpoint: mean survival time, dose: 50.0 mg/kg/injection, schedule: Q01DX009 (ip), vehicle: other) 94 % of control; (endpoint: mean survival time, dose: 100.0 mg/kg/injection, schedule: Q01DX009 (ip), vehicle: other) 97 % of control; (endpoint: mean survival time, dose: 200.0 mg/kg/injection, schedule: Q01DX009 (ip), vehicle: other) 97 % of control.
With `c1ccc(CN2CN(Cc3ccccc3)CN(Cc3ccccc3)C2)cc1`, the T/C under setting [1] is 100 % of control; the T/C under setting [2] is 89 % of control; the T/C under setting [3] was 100 % of control; the T/C under setting [4] was 89 % of control; the T/C (endpoint: mean survival time, dose: 400.0 mg/kg/injection, schedule: Q01DX009 (ip), vehicle: saline with Tween-80) was 97 % of control; the T/C under setting [5] was 98 % of control.
Consider `ClC1=NC(Cl)C(Cl)=N/C1=N\c1ncn[nH]1` (stereo unspecified), for which the T/C reads like this: (endpoint: mean survival time, dose: 25.0 mg/kg/injection, schedule: Q04DX003 (ip), vehicle: saline with Tween-80) 96 % of control; (endpoint: mean survival time, dose: 50.0 mg/kg/injection, schedule: Q04DX003 (ip), vehicle: saline with Tween-80) 95 % of control; (endpoint: mean survival time, dose: 100.0 mg/kg/injection, schedule: Q04DX003 (ip), vehicle: saline sonified) 93 % of control.
For `O=C(N/N=C/c1ccc2c(c1)CCC2)c1cccc([N+](=O)[O-])c1`, the T/C under setting [2] is 91 % of control; the T/C under setting [6] is 94 % of control; the T/C under setting [4] is 94 % of control; the T/C under setting [7] is 101 % of control; the T/C under setting [5] is 106 % of control.
As for `C/C=C/C(Cc1ccc2ccccc2c1)(C(=O)OCC)C(=O)OCC`, the T/C by setting is: under setting [8], 91 % of control; under setting [9], 88 % of control; under setting [10], 94 % of control.
In the case of `CCN(CC)C(=O)/C=C/c1ccccc1`, the T/C under setting [2] is 103 % of control, the T/C under setting [4] is 101 % of control and the T/C under setting [5] was 103 % of control.
Regarding `Cc1ccc([N+](=O)[O-])cc1NC(=O)Oc1ccc(Cl)cc1Cl`, the T/C runs as follows: (endpoint: mean survival time, dose: 50.0 mg/kg/injection, schedule: Q01DX009 (ip), vehicle: saline with Tween-80) 102 % of control; under setting [1], 103 % of control.
In the case of `CC(=O)OC(C)CC(C)(C)OC(C)=O` (stereo unspecified), the T/C under setting [11] is 95 % of control, the T/C under setting [6] is 92 % of control and the T/C under setting [7] was 103 % of control.
Consider `Cc1ccc(S(=O)(=O)SC(Cl)(Cl)Cl)cc1`, for which the T/C reads like this: (endpoint: mean survival time, dose: 12.5 mg/kg/injection, schedule: Q01DX009 (ip), vehicle: saline) 94 % of control; (endpoint: mean survival time, dose: 25.0 mg/kg/injection, schedule: Q01DX009 (ip), vehicle: saline) 102 % of control.
As for `CS(=O)(=O)/C(C#N)=N/O`, the T/C is, setting by setting: under setting [12], 103 % of control; under setting [13], 98 % of control; under setting [14], 101 % of control.
With `CN(C)C(=S)Oc1c(S(=O)(=O)F)ccc(Cl)c1Cl`, the T/C by setting is: under setting [15], 91 % of control; under setting [16], 91 % of control; (endpoint: mean survival time, dose: 400.0 mg/kg/injection, schedule: Q04DX002 (ip), vehicle: saline with Tween-80) 97 % of control.
Turning to `O=S1(=O)N=C2C3CCN(CC3)C2C(c2ccccc2)N1` (stereo unspecified), the T/C was 94 % of control under setting [12], 101 % of control under setting [13] and 101 % of control under setting [14].
`CCOC(=O)C(N)C[S][Sn]([CH3])([CH3])[Cl]` (stereo unspecified): the T/C was 98 % of control (endpoint: median survival time, dose: 3.12 mg/kg/injection, schedule: Q01DX009 (ip), vehicle: saline); 97 % of control (endpoint: median survival time, dose: 6.25 mg/kg/injection, schedule: Q01DX009 (ip), vehicle: saline); 100 % of control (endpoint: median survival time, dose: 12.5 mg/kg/injection, schedule: Q01DX009 (ip), vehicle: saline); 89 % of control (endpoint: median survival time, dose: 25.0 mg/kg/injection, schedule: Q01DX009 (ip), vehicle: saline).
Consider `CC(=O)C1CCC2CC3CCCCC3N(C(C)=O)C2C1` (stereo unspecified), for which the T/C runs as follows: under setting [17], 107 % of control; under setting [11], 105 % of control; under setting [6], 100 % of control.
As to `CC(C)COC(=N)c1ccccc1C1(O)CCCCC1`, the T/C runs as follows: (endpoint: mean survival time, dose: 50.0 mg/kg/injection, schedule: Q04DX002 (ip), vehicle: saline with Tween-80) 91 % of control; under setting [15], 88 % of control; under setting [2], 98 % of control; under setting [16], 100 % of control; under setting [4], 92 % of control.
Take `CC(C)(C)S(=O)(=O)C(C)(C)C`: the T/C runs as follows: under setting [2], 98 % of control; under setting [4], 93 % of control; under setting [5], 93 % of control.
Turning to `CCCCCCCCCCC/C=C\C(C#N)C(=O)OCC` (stereo unspecified), the T/C by setting is: under setting [2], 103 % of control; under setting [4], 108 % of control; under setting [5], 87 % of control.
Take `COC(=O)C1(C)CCCC2(C)C3CCC(C)(CCOC(C)=O)CC3C(OC(C)=O)CC12` (stereo unspecified): the T/C under setting [11] was 90 % of control.
Turning to `CCN1CCCC(Nc2nc(Nc3cc(Cl)cc(Cl)c3)nc3ccc(Cl)cc23)C1` (stereo unspecified), the T/C (endpoint: mean survival time, dose: 25.0 mg/kg/injection, schedule: Q01DX009 (ip), vehicle: saline with Tween-80) was 103 % of control and the T/C under setting [2] was 90 % of control.
Take `O=C(O)C(O)C(O)C(O)C(O)CO.[NH-]C1CCCCC1[NH-].[Pt+2]` (stereo unspecified): the T/C was 150 % of control and 290 % of control (endpoint: mean survival time, dose: 6.25 mg/kg/injection, schedule: Q04DX003 (ip), vehicle: saline); 230 % of control and 277 % of control (endpoint: mean survival time, dose: 12.5 mg/kg/injection, schedule: Q04DX003 (ip), vehicle: saline); 244 % of control and 314 % of control (endpoint: mean survival time, dose: 25.0 mg/kg/injection, schedule: Q04DX003 (ip), vehicle: saline).
Consider `C=CCC1(C(=O)OCC)CCCCC1=O` (stereo unspecified), for which the T/C is 103 % of control under setting [2], 106 % of control under setting [4] and 110 % of control under setting [5].
Consider `COn1c(-c2ccccc2)nc2c1C(=O)N(C)CN2C`, for which the T/C by setting is: (endpoint: mean survival time, dose: 12.5 mg/kg/injection, schedule: Q01DX005 (ip), vehicle: other) 96 % of control; (endpoint: mean survival time, dose: 25.0 mg/kg/injection, schedule: Q01DX005 (ip), vehicle: other) 96 % of control; (endpoint: mean survival time, dose: 50.0 mg/kg/injection, schedule: Q01DX005 (ip), vehicle: other) 96 % of control; (endpoint: mean survival time, dose: 100.0 mg/kg/injection, schedule: Q01DX005 (ip), vehicle: other) 95 % of control; (endpoint: mean survival time, dose: 200.0 mg/kg/injection, schedule: Q01DX005 (ip), vehicle: other) 96 % of control.
In the case of `CC1(C)Cc2ccccc2O1`, the T/C under setting [1] was 104 % of control and the T/C under setting [3] was 91 % of control.
For the compound `CCCP(=O)(CCC)CCC`, the T/C was 94 % of control (endpoint: mean survival time, dose: 25.0 mg/kg/injection, schedule: Q01DX001 (ip), vehicle: saline with Tween-80); 96 % of control under setting [17]; 94 % of control under setting [11].
For the compound `CC1(Br)C(Sc2ccccc2[N+](=O)[O-])=Nc2ccccc21` (stereo unspecified), the T/C runs as follows: under setting [8], 94 % of control; under setting [9], 94 % of control; under setting [10], 94 % of control.
Regarding `CC(C)(C)OC(=O)NCC(=O)ON1C(=O)CCC1=O`, the T/C was 96 % of control under setting [2] and 87 % of control under setting [4].
Take `CCOC(=O)c1c(C)c2c(n1C)CC/C(=C\O)C2=O`: the T/C is 100 % of control (endpoint: mean survival time, dose: 25.0 mg/kg/injection, schedule: Q04DX002 (ip), vehicle: other); 96 % of control (endpoint: mean survival time, dose: 50.0 mg/kg/injection, schedule: Q04DX002 (ip), vehicle: other); 88 % of control and 96 % of control (endpoint: mean survival time, dose: 100.0 mg/kg/injection, schedule: Q04DX002 (ip), vehicle: other).
